Among the data in ChEMBL document CHEMBL5528002, “Identification of selective 5-LOX and FLAP inhibitors as novel anti-inflammatory agents by ligand-based virtual screening” (Eur J Med Chem, 2024) are Activity and inhibition values, retold here.

Active and inactive are the calls of the source. The calls are words filed in the database; no cut-off is given here.

Test [1] has as its system Macrophage cell line. The experiment in a line: Effect on lipid mediator formation in human M2-like phenotype MDM cells by measuring PGE2 formation at 10 uM pre-incubated for 15 mins followed by SACM stimulation and measured after 90 mins by UPLC-MS/MS analysis (reference value: 159 +/- 24 pg/ml). As to conditions: time 105 min, 1.75 h. In kind it is functional.
In test [2] the test system is Macrophage cell line. Nature of the test: Effect on lipid mediator formation in human M2-like phenotype MDM cells by measuring 12-HEPE formation at 10 uM pre-incubated for 15 mins followed by SACM stimulation and measured after 90 mins by UPLC-MS/MS analysis relative to control. Type of test: functional. As to conditions: time 105 min, 1.75 h.
Test [3] concerns the target T1, Polyunsaturated fatty acid 5-lipoxygenase (Homo sapiens) (UniProt P09917).
T1 sequence (whole entry): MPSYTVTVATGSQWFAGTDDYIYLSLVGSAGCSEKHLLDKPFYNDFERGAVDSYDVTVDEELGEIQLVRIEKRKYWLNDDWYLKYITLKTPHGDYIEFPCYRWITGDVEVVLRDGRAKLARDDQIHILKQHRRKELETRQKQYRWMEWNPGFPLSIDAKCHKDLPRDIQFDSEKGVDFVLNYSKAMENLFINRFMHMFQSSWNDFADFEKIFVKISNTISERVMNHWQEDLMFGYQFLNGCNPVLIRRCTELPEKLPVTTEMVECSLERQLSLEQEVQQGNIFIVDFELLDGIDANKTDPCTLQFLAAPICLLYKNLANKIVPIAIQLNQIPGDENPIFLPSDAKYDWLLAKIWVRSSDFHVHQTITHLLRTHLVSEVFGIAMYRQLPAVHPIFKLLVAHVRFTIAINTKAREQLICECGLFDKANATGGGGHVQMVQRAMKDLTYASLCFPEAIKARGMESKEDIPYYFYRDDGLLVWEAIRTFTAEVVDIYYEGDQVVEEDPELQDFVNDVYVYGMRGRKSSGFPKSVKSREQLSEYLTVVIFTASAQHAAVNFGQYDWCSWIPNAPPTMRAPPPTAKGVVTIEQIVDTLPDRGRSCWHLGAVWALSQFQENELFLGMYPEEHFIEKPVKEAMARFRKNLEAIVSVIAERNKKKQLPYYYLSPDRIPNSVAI
The experiment in a line: Inhibition of 5-LOX in human Neutrophil assessed as enzyme remaining activity at 10 uM preincubated with compound for 15 mins followed by A23187 addition measured after 10 mins by RP-HPLC analysis relative to control. Type of test: cell-based. The settings on record: time 25.0 min.

Test [4] has as its system Macrophage cell line. The experiment in a line: Effect on lipid mediator formation in human M2-like phenotype MDM cells by measuring arachidonic acid formation at 10 uM pre-incubated for 15 mins followed by SACM stimulation and measured after 90 mins by UPLC-MS/MS analysis (reference value: 92007 +/- 4892 pg/ml). Type of test: functional. As to conditions: time 105 min, 1.75 h.

Test [5] deals with Macrophage cell line. The experiment in a line: Effect on lipid mediator formation in human M1-like phenotype MDM cells by measuring 12-HEPE formation at 10 uM pre-incubated for 15 mins followed by SACM stimulation and measured after 90 mins by UPLC-MS/MS analysis relative to control. Type of test: functional. The settings on record: time 105 min, 1.75 h.
The test system of test [6] is Macrophage cell line. Nature of the test: Effect on lipid mediator formation in human M1-like phenotype MDM cells by measuring 17-HDHA formation at 10 uM pre-incubated for 15 mins followed by SACM stimulation and measured after 90 mins by UPLC-MS/MS analysis relative to control. In kind it is functional. As to conditions: time 105 min, 1.75 h.
In test [7] the test system is Macrophage cell line. The experiment in a line: Effect on lipid mediator formation in human M2-like phenotype MDM cells by measuring PGD2 formation at 10 uM pre-incubated for 15 mins followed by SACM stimulation and measured after 90 mins by UPLC-MS/MS analysis (reference value: 48 +/- 13 pg/ml). In kind it is functional. The settings on record: time 105 min, 1.75 h.

Test [8] relates to Macrophage cell line. Nature of the test: Effect on lipid mediator formation in human M1-like phenotype MDM cells by measuring 7-HDHA formation at 10 uM pre-incubated for 15 mins followed by SACM stimulation and measured after 90 mins by UPLC-MS/MS analysis (reference value: 118 +/- 14 pg/ml). Type of test: functional. As to conditions: time 105 min, 1.75 h.
For test [9], the system named is Macrophage cell line. Nature of the test: Effect on lipid mediator formation in human M2-like phenotype MDM cells by measuring MaR2 formation at 10 uM pre-incubated for 15 mins followed by SACM stimulation and measured after 90 mins by UPLC-MS/MS analysis (reference value: 16 +/- 1 pg/ml). Type of test: functional. The settings on record: time 105 min, 1.75 h.
Test [10] relates to Macrophage cell line. Nature of the test: Effect on lipid mediator formation in human M2-like phenotype MDM cells by measuring RvD1 formation at 10 uM pre-incubated for 15 mins followed by SACM stimulation and measured after 90 mins by UPLC-MS/MS analysis relative to control. As to conditions: time 105 min, 1.75 h. Type of test: functional.
The test system of test [11] is Macrophage cell line. Nature of the test: Effect on lipid mediator formation in human M1-like phenotype MDM cells by measuring 5-HEPE formation at 10 uM pre-incubated for 15 mins followed by SACM stimulation and measured after 90 mins by UPLC-MS/MS analysis (reference value: 560 +/- 160 pg/ml). As to conditions: time 105 min, 1.75 h. In kind it is functional.
The target in test [12] is T2, Prostaglandin E synthase (Homo sapiens) (UniProt O14684).
T2 sequence (whole entry): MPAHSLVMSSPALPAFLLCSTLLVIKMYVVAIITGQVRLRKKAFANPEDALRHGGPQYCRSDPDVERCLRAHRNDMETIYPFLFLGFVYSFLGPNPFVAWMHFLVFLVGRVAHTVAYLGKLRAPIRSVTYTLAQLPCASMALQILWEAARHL
The experiment in a line: Inhibition of human mPGES-1 at 10 uM relative to control.

The subject of test [13] is Macrophage cell line. The experiment in a line: Effect on lipid mediator formation in human M2-like phenotype MDM cells by measuring PGF2alpha formation at 10 uM pre-incubated for 15 mins followed by SACM stimulation and measured after 90 mins by UPLC-MS/MS analysis (reference value: 72 +/- 21 pg/ml). Type of test: functional. As to conditions: time 105 min, 1.75 h.
For test [14], the system named is Macrophage cell line. Nature of the test: Effect on lipid mediator formation in human M2-like phenotype MDM cells by measuring PDX1 formation at 10 uM pre-incubated for 15 mins followed by SACM stimulation and measured after 90 mins by UPLC-MS/MS analysis relative to control. In kind it is functional. The settings on record: time 105 min, 1.75 h.
In a further test the test system is Neutrophil. Nature of the test: Inhibition of ROS production in PMA-induced human Neutrophil cells at 10 uM incubated for 10 mins by DCFH-DA dye based fluorometric assay. Type of test: functional, cell-based.
The subject of test [15] is Macrophage cell line. The experiment in a line: Effect on lipid mediator formation in human M2-like phenotype MDM cells by measuring MaR1 formation at 10 uM pre-incubated for 15 mins followed by SACM stimulation and measured after 90 mins by UPLC-MS/MS analysis (reference value: 76 +/- 18 pg/ml). In kind it is functional. As to conditions: time 105 min, 1.75 h.
Test [16] has as its system Macrophage cell line. The experiment in a line: Effect on lipid mediator formation in human M2-like phenotype MDM cells by measuring arachidonic acid formation at 10 uM pre-incubated for 15 mins followed by SACM stimulation and measured after 90 mins by UPLC-MS/MS analysis relative to control. In kind it is functional. As to conditions: time 105 min, 1.75 h.
Test [17] deals with Macrophage cell line. The experiment in a line: Effect on lipid mediator formation in human M2-like phenotype MDM cells by measuring RvD2 formation at 10 uM pre-incubated for 15 mins followed by SACM stimulation and measured after 90 mins by UPLC-MS/MS analysis relative to control. As to conditions: time 105 min, 1.75 h. In kind it is functional.
For test [18], the system named is Macrophage cell line. The experiment in a line: Effect on lipid mediator formation in human M1-like phenotype MDM cells by measuring TXB2 formation at 10 uM pre-incubated for 15 mins followed by SACM stimulation and measured after 90 mins by UPLC-MS/MS analysis (reference value: 8866 +/- 2561 pg/ml). The settings on record: time 105 min, 1.75 h. Type of test: functional.

Regarding `Oc1ccc(CCC2CCC(c3ccc(O)cc3)CO2)cc1` (stereo not drawn), the Activity in the test with Macrophage cell line [1] came to 234 pg/mL; with Macrophage cell line [2], 128%; in test [3] it was 4.2%; in the test with Macrophage cell line [4], 103809 pg/mL; in the test with Macrophage cell line [5], 90%; with Macrophage cell line [6], 135%. Also, the Activity with Macrophage cell line [7] turned out to be 62 pg/mL; in the test with Macrophage cell line [8] it was 45 pg/mL; in the test with Macrophage cell line [9], 31 pg/mL; in the test on Macrophage cell line [10] it was 82%; in the test with Macrophage cell line [11], 98 pg/mL; in the test with Macrophage cell line [13] it was 58 pg/mL. Also, the Activity amounted to 116% in the test on Macrophage cell line [14]; 81 pg/mL in the test on Macrophage cell line [15]; 113% in the test with Macrophage cell line [16]; 96% with Macrophage cell line [17]; 8319 pg/mL with Macrophage cell line [18]. Further, the inhibition entry (in [12]; with Neutrophil) was “inactive” in each case.
As to `COc1ccc(C2=C/C(=C/c3ccc(O)cc3O)C(=O)O2)cc1`, the Activity in the test with Macrophage cell line [1] was found to be 412 pg/mL; in the test with Macrophage cell line [2] it was 144%; in test [3], 19.6%; in the test on Macrophage cell line [4], 94519 pg/mL; in the test on Macrophage cell line [5], 92%; with Macrophage cell line [6] it was 106%. Moreover, the Activity with Macrophage cell line [7] is 96 pg/mL; in the test on Macrophage cell line [8] it was 36 pg/mL; in the test with Macrophage cell line [9], 36 pg/mL; in the test with Macrophage cell line [10], 114%; in the test with Macrophage cell line [11], 62 pg/mL; in the test with Macrophage cell line [13], 89 pg/mL. The Activity with Macrophage cell line [14] turned out to be 144%; in the test on Macrophage cell line [15], 144 pg/mL; in the test on Macrophage cell line [16], 103%; with Macrophage cell line [17], 112%; in the test with Macrophage cell line [18] it was 8338 pg/mL. Besides, the inhibition result (in test [12]; in the test with Neutrophil) was “inactive” throughout.
